The text below walks through data of patent US20260070945A1, “MACROCYCLIC IMMUNOMODULATORS” (Bristol-Myers Squibb Company, priority 2022, published 2026).

*1 amine or outer side, *2 acyl side, *3 side chain or, on linkers, in order; H or OH if unused. Where a SMILES comes first, the peptide text is derived from it. Bridges are numbered along the chain shown (N, C = ends). [ ]: non-standard residue; d: D form. The star is where a group is joined. ξ: configuration not given here. Phe(4-COOH) = N[C@@H](Cc1ccc(C(=O)O)cc1)C(=O)O; Bip = N[C@@H](Cc1ccc(-c2ccccc2)cc1)C(=O)O; NH(CH2)14COOH = O=C(O)CCCCCCCCCCCCCCN*; Phe(3-Me) = Cc1cccc(C[C@H](N)C(=O)O)c1; γGlu = O=C(O)[C@H](CCC(=O)[*:2])N[*:1]; βAsp = O=C(O)[C@H](CC(=O)[*:2])N[*:1]; NH(CH2)12COOH = O=C(O)CCCCCCCCCCCCN*; aIle = CC[C@@H](C)[C@H](N)C(=O)O; hArg = N=C(N)NCCCC[C@H](N)C(=O)O; 4Pal = N[C@@H](Cc1ccncc1)C(=O)O; Cha = N[C@@H](CC1CCCCC1)C(=O)O; Ile(3ξ) = CCC(C)[C@H](N)C(=O)O; Thr(3ξ) = CC(O)[C@H](N)C(=O)O; 12Ado = NCCCCCCCCCCCC(=O)O; Carboxymethyl = O=C(O)C*; NMeA = CN[C@@H](C)C(=O)O; Nle = CCCC[C@H](N)C(=O)O; Orn = NCCC[C@H](N)C(=O)O; dDap = NC[C@@H](N)C(=O)O; Aun = NCCCCCCCCCCC(=O)O; Dab = NCC[C@H](N)C(=O)O; AEEA = NCCOCCOCC(=O)O

The target in the test is T1, PD-1/PD-L1 interaction (PE-labeled human PD-L1-Ig binding to Jurkat cell line over-expressing human PD-1) (Homo sapiens, UniProt Q15116).
T1 construct: expressed in transfected cells; host or cells: Jurkat
T1 sequence (Q15116 25-288): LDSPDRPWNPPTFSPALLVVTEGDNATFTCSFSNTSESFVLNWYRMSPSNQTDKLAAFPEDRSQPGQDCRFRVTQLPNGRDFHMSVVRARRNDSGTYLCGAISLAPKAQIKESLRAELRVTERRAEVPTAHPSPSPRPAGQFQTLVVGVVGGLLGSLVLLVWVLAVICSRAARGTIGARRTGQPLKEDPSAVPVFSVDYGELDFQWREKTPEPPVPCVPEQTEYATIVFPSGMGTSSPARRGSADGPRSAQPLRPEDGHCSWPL
The test can be described thus: Jurkat-PD-1 Cell Binding High-Content Screening Assay (CBA). The following applies: Jurkat-hPD-1 cells, PE-labeled PD-L1-Ig 20 nM final; read-out: Jurkat HPD1 PDL1 IC50. In short, it runs like this: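 Binding of 20 nM (final) PE-tagged PD-L1-Ig to compound-pretreated Jurkat-hPD-1 cells was measured by high-content imaging after 1 h. Pretreatment ran 2 h at 37 °C in DMEM with 10% fetal calf serum.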
With `CC(C)C[C@H]1NC(=O)[C@H](C)N(C)C(=O)[C@H](C(C)C)NC(=O)[C@H](Cc2ccc(-c3ccccc3)cc2)NC(=O)[C@H](C(C)C)NC(=O)[C@H](Cc2c[nH]c3ccccc23)NC(=O)[C@H](CC(=O)O)NC(=O)[C@H](Cc2ccc(C(=O)O)cc2)NC(=O)[C@H](Cc2ccncc2)NC(=O)CSC[C@@H](C(=O)N[C@@H](CCN)C(=O)NCCCCCCCCCCCCCCC(=O)O)NC(=O)[C@H](CO)NC(=O)[C@H](C(C)C)NC(=O)[C@H](CC2CCCCC2)NC(=O)[C@H](CCN)NC1=O` [Example 2004] ({CH2CO}-[4Pal][Phe(4-COOH)]DWV[Bip]V[NMeA][dL][Dab][Cha]VSC[Dab]-{NH(CH2)14COOH}; thioether N-14), the IC50 turned out to be 181 nM. The result for `CC(C)C[C@@H]1NC(=O)[C@H](Cc2c[nH]c3ccccc23)NC(=O)[C@H](CC(=O)O)NC(=O)[C@H](Cc2ccc(C(=O)O)cc2)NC(=O)[C@H](C(C)O)NC(=O)CSC[C@@H](C(=O)N[C@@H](C)C(=O)N[C@@H](CCN)C(=O)NCCCCCCCCCCCCCCC(=O)O)NC(=O)[C@H](CO)NC(=O)[C@H](C(C)C)NC(=O)[C@H](CC2CCCCC2)NC(=O)[C@H](CCN)NC(=O)[C@@H](CC(C)C)NC(=O)[C@H](C)N(C)C(=O)[C@H](C(C)C)NC(=O)[C@H](Cc2ccc(-c3ccccc3)cc2)NC1=O` (stereo partly drawn) [Example 2005] ({CH2CO}-[Thr(3ξ)][Phe(4-COOH)]DWL[Bip]V[NMeA][dL][Dab][Cha]VSCA[Dab]-{NH(CH2)14COOH}; thioether N-14) reads 223 nM; that for `CCC(C)[C@@H]1NC(=O)[C@H](Cc2ccc(-c3ccccc3)cc2)NC(=O)[C@H](C(C)C)NC(=O)[C@H](Cc2c[nH]c3ccccc23)NC(=O)[C@H](CC(=O)O)NC(=O)[C@H](Cc2ccc(OCC(=O)O)cc2)NC(=O)[C@H](C(C)O)NC(=O)CSC[C@@H](C(=O)N[C@@H](C)C(=O)NCCOCCOCC(=O)N[C@@H](CCC(=O)NCCOCCOCC(=O)N[C@@H](CCC(=O)NCCOCCOCC(=O)N[C@@H](CCCCN)C(=O)NCCCCCCCCCCCCC(=O)O)C(=O)O)C(=O)O)NC(=O)[C@H](C(C)O)NC(=O)[C@H](C(C)C)NC(=O)[C@H](CC2CCCCC2)NC(=O)[C@H](CCN)NC(=O)[C@@H](CC(C)C)NC(=O)[C@H](C)N(C)C1=O` (stereo partly drawn) [Example 2009] ({CH2CO}-[Thr(3ξ)]Y(Carboxymethyl)DWV[Bip][Ile(3ξ)][NMeA][dL][Dab][Cha]V[Thr(3ξ)]CA[AEEA][γGlu][AEEA][γGlu][AEEA]K-{NH(CH2)12COOH}; thioether N-14), 58.3 nM; that for `CCC(C)[C@@H]1NC(=O)[C@H](Cc2ccc(-c3ccccc3)cc2)NC(=O)[C@H](C(C)C)NC(=O)[C@H](Cc2c[nH]c3ccccc23)NC(=O)[C@H](CC(=O)O)NC(=O)[C@H](Cc2ccc(OCC(=O)O)cc2)NC(=O)[C@H](C(C)O)NC(=O)CSC[C@@H](C(=O)N[C@@H](C)C(=O)NCCOCCOCC(=O)N[C@@H](CCC(=O)NCCOCCOCC(=O)N[C@@H](CCC(=O)NCCOCCOCC(=O)N[C@@H](CCCN)C(=O)NCCCCCCCCCCCC(=O)O)C(=O)O)C(=O)O)NC(=O)[C@H](C(C)O)NC(=O)[C@H](C(C)C)NC(=O)[C@H](CC2CCCCC2)NC(=O)[C@H](CCN)NC(=O)[C@@H](CC(C)C)NC(=O)[C@H](C)N(C)C1=O` (stereo partly drawn) [Example 2010] ({CH2CO}-[Thr(3ξ)]Y(Carboxymethyl)DWV[Bip][Ile(3ξ)][NMeA][dL][Dab][Cha]V[Thr(3ξ)]CA[AEEA][γGlu][AEEA][γGlu][AEEA][Orn][12Ado]-OH; thioether N-14), 34.8 nM. The result for `CCCC[C@@H]1NC(=O)CSC[C@@H](C(=O)N[C@@H](CCN)C(=O)NCCOCCOCC(=O)N[C@@H](CCC(=O)NCCOCCOCC(=O)NCCCCCCCCCCCCC(=O)O)C(=O)O)NC(=O)[C@H](CCC(=O)O)NC(=O)[C@H](C(C)C)NC(=O)[C@H](CC2CCCCC2)NC(=O)[C@H](CCN)NC(=O)[C@@H](CC(C)C)NC(=O)[C@H](C)N(C)C(=O)[C@H](Cc2ccc(OCC(=O)O)cc2)NC(=O)[C@H](Cc2ccc(-c3ccccc3)cc2)NC(=O)[C@H](Cc2ccc(OCC(=O)O)cc2)NC(=O)[C@H](Cc2cccc(C)c2)NC(=O)[C@H](CC(=O)O)NC(=O)[C@H](Cc2ccc(OCC(=O)O)cc2)NC1=O` [Example 2011] ({CH2CO}-[Nle]Y(Carboxymethyl)D[Phe(3-Me)]Y(Carboxymethyl)[Bip]Y(Carboxymethyl)[NMeA][dL][Dab][Cha]VEC[Dab][AEEA][γGlu][AEEA]-{NH(CH2)12COOH}; thioether N-14) reads 88.3 nM.

Turning to `CC(C)C[C@@H]1NC(=O)[C@H](Cc2c[nH]c3ccccc23)NC(=O)[C@H](CC(=O)O)NC(=O)[C@H](Cc2ccc(OCC(=O)O)cc2)NC(=O)[C@H](CCCCNC(=N)N)NC(=O)CSC[C@@H](C(=O)N[C@@H](CC(N)=O)C(=O)NCCOCCOCC(=O)N[C@@H](CC(=O)NCCCCCCCCCCC(=O)O)C(=O)O)NC(=O)[C@H](CO)NC(=O)[C@H](C(C)C)NC(=O)[C@H](CC(C)C)NC(=O)[C@H](CC(N)=O)NC(=O)[C@@H](CC(C)C)NC(=O)[C@H](C)N(C)C(=O)[C@H](C(C)C)NC(=O)[C@H](Cc2ccc(-c3ccccc3)cc2)NC1=O` [Example 2012] ({CH2CO}-[hArg]Y(Carboxymethyl)DWL[Bip]V[NMeA][dL]NLVSCN[AEEA][βAsp][Aun]-OH; thioether N-14), the IC50 was found to be 21 nM. The result for `CC[C@@H](C)[C@@H]1NC(=O)[C@H](Cc2ccc(-c3ccccc3)cc2)NC(=O)[C@H](C(C)C)NC(=O)[C@H](Cc2c[nH]c3ccccc23)NC(=O)[C@H](CC(=O)O)NC(=O)[C@H](Cc2ccc(OCC(=O)O)cc2)NC(=O)[C@H](Cc2ccncc2)NC(=O)CSC[C@@H](C(=O)N[C@H](CN)C(=O)NCCOCCOCC(=O)N[C@@H](CCC(=O)NCCOCCOCC(=O)N[C@@H](CCC(=O)NCCOCCOCC(=O)N[C@@H](CCCN)C(=O)NCCCCCCCCCCC(=O)O)C(=O)O)C(=O)O)NC(=O)[C@H](Cc2c[nH]cn2)NC(=O)[C@H](C(C)C)NC(=O)[C@H](CC2CCCCC2)NC(=O)[C@H](CC(N)=O)NC(=O)[C@@H](CC(C)C)NC(=O)[C@H](C)N(C)C1=O` [Example 2013] ({CH2CO}-[4Pal]Y(Carboxymethyl)DWV[Bip][aIle][NMeA][dL]N[Cha]VHC[dDap][AEEA][γGlu][AEEA][γGlu][AEEA][Orn][Aun]-OH; thioether N-14) reads 74.1 nM. The result for `CC[C@@H](C)[C@@H]1NC(=O)[C@H](Cc2ccc(-c3ccccc3)cc2)NC(=O)[C@H](C(C)C)NC(=O)[C@H](Cc2c[nH]c3ccccc23)NC(=O)[C@H](CC(=O)O)NC(=O)[C@H](Cc2ccc(OCC(=O)O)cc2)NC(=O)[C@H](Cc2ccncc2)NC(=O)CSC[C@@H](C(=O)N[C@H](CN)C(=O)NCCOCCOCC(=O)N[C@@H](CCC(=O)NCCOCCOCC(=O)N[C@@H](CCC(=O)NCCOCCOCC(=O)N[C@@H](CCCN)C(=O)NCCCCCCCCCCC(=O)O)C(=O)O)C(=O)O)NC(=O)[C@H](CO)NC(=O)[C@H](C(C)C)NC(=O)[C@H](CC2CCCCC2)NC(=O)[C@H](CC(N)=O)NC(=O)[C@@H](CC(C)C)NC(=O)[C@H](C)N(C)C1=O` [Example 2014] ({CH2CO}-[4Pal]Y(Carboxymethyl)DWV[Bip][aIle][NMeA][dL]N[Cha]VSC[dDap][AEEA][γGlu][AEEA][γGlu][AEEA][Orn][Aun]-OH; thioether N-14) reads 42.7 nM; that for `CC[C@@H](C)[C@@H]1NC(=O)[C@H](Cc2ccc(-c3ccccc3)cc2)NC(=O)[C@H](C(C)C)NC(=O)[C@H](Cc2c[nH]c3ccccc23)NC(=O)[C@H](CC(=O)O)NC(=O)[C@H](Cc2ccc(OCC(=O)O)cc2)NC(=O)[C@H](Cc2ccncc2)NC(=O)CSC[C@@H](C(=O)N[C@H](CC(N)=O)C(=O)NCCOCCOCC(=O)N[C@@H](CCC(=O)NCCOCCOCC(=O)N[C@@H](CCC(=O)NCCOCCOCC(=O)N[C@@H](CCCN)C(=O)NCCCCCCCCCCC(=O)O)C(=O)O)C(=O)O)NC(=O)[C@H](CO)NC(=O)[C@H](C(C)C)NC(=O)[C@H](CC2CCCCC2)NC(=O)[C@H](CCN)NC(=O)[C@@H](CC(C)C)NC(=O)[C@H](C)N(C)C1=O` [Example 2015] ({CH2CO}-[4Pal]Y(Carboxymethyl)DWV[Bip][aIle][NMeA][dL][Dab][Cha]VSC[dN][AEEA][γGlu][AEEA][γGlu][AEEA][Orn][Aun]-OH; thioether N-14), 9.4 nM; that for `CC[C@@H](C)[C@@H]1NC(=O)[C@H](Cc2ccc(-c3ccccc3)cc2)NC(=O)[C@H](C(C)C)NC(=O)[C@H](Cc2c[nH]c3ccccc23)NC(=O)[C@H](CC(=O)O)NC(=O)[C@H](Cc2ccc(OCC(=O)O)cc2)NC(=O)[C@H](Cc2ccncc2)NC(=O)CSC[C@@H](C(=O)N[C@H](C)C(=O)NCCOCCOCC(=O)N[C@@H](CCC(=O)NCCOCCOCC(=O)N[C@@H](CCC(=O)NCCOCCOCC(=O)N[C@@H](CCCN)C(=O)NCCCCCCCCCCC(=O)O)C(=O)O)C(=O)O)NC(=O)[C@H](CO)NC(=O)[C@H](C(C)C)NC(=O)[C@H](CC2CCCCC2)NC(=O)[C@H](CC(N)=O)NC(=O)[C@@H](CC(C)C)NC(=O)[C@H](C)N(C)C1=O` [Example 2016] ({CH2CO}-[4Pal]Y(Carboxymethyl)DWV[Bip][aIle][NMeA][dL]N[Cha]VSC[dA][AEEA][γGlu][AEEA][γGlu][AEEA][Orn][Aun]-OH; thioether N-14), 38.8 nM. Consider `CC[C@@H](C)[C@@H]1NC(=O)[C@H](Cc2ccc(-c3ccccc3)cc2)NC(=O)[C@H](C(C)C)NC(=O)[C@H](Cc2c[nH]c3ccccc23)NC(=O)[C@H](CC(=O)O)NC(=O)[C@H](Cc2ccc(OCC(=O)O)cc2)NC(=O)[C@H](Cc2ccncc2)NC(=O)CSC[C@@H](C(=O)N[C@H](CC(N)=O)C(=O)NCCOCCOCC(=O)N[C@@H](CCC(=O)NCCOCCOCC(=O)N[C@@H](CCC(=O)NCCOCCOCC(=O)N[C@@H](CCCN)C(=O)NCCCCCCCCCCC(=O)O)C(=O)O)C(=O)O)NC(=O)[C@H](CO)NC(=O)[C@H](C(C)C)NC(=O)[C@H](CC2CCCCC2)NC(=O)[C@H](CC(N)=O)NC(=O)[C@@H](CC(C)C)NC(=O)[C@H](C)N(C)C1=O` [Example 2017] ({CH2CO}-[4Pal]Y(Carboxymethyl)DWV[Bip][aIle][NMeA][dL]N[Cha]VSC[dN][AEEA][γGlu][AEEA][γGlu][AEEA][Orn][Aun]-OH; thioether N-14), for which the IC50 stood at 24.3 nM.

What is called IC50 is the concentration needed to halve the response being measured.
